Measurements reported in PubChem BioAssay (NCI).
≈ marks a conversion by molar mass, not a printed value. Where “and” joins values, the source holds several entries; their conditions need not be identical. Equal entries are not always repeated.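 Protocol summary: plate cells (96-well), add compound at 5 concentrations, incubate 48 h, interpolate endpoints linearly. Abbreviation: GI50, concentration required for 50% inhibition of growth. The concentration for full growth arrest is given as TGI.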

Tests used:
Assay in all cases: growth of human tumour cells (NCI), 48 h
[1] = tested on: DU-145 prostate
[2] = tested on: CCRF-CEM leukemia
[3] = tested on: UACC-257 melanoma
[4] = tested on: EKVX NSCLC
[5] = tested on: KM12 colon
[6] = tested on: SW-620 colon
[7] = tested on: SNB-75 CNS
[8] = tested on: HOP-92 NSCLC
[9] = tested on: T-47D breast
[10] = tested on: SN12C renal
[11] = tested on: MCF7 breast
[12] = tested on: SF-268 CNS
[13] = tested on: 786-0 renal
[14] = tested on: MDA-N
[15] = tested on: TK-10 renal
[16] = tested on: OVCAR-3 ovarian
[17] = tested on: COLO 205 colon
[18] = tested on: RXF 393 renal
[19] = tested on: HOP-62 NSCLC
[20] = tested on: SK-MEL-2 melanoma
[21] = tested on: UACC-62 melanoma
[22] = tested on: SK-OV-3 ovarian
[23] = tested on: HCC-2998 colon
[24] = tested on: NCI-H226 lung
[25] = tested on: SR leukemia
[26] = tested on: A549 NSCLC
[27] = tested on: SK-MEL-28 melanoma
[28] = tested on: OVCAR-5 ovarian
[29] = tested on: SK-MEL-5 melanoma
[30] = tested on: NCI-H23 lung
[31] = tested on: MOLT-4 leukemia
[32] = tested on: UO-31 renal
[33] = tested on: OVCAR-4 ovarian
[34] = tested on: SNB-19 CNS
[35] = tested on: IGROV1 ovarian
[36] = tested on: SF-295 CNS
[37] = tested on: RPMI-8226 leukemia
[38] = tested on: HS 578T breast
[39] = tested on: M14 melanoma
[40] = tested on: HCT-116 colon
[41] = tested on: U251 CNS
[42] = tested on: HT29 colon
[43] = tested on: MDA-MB-231 breast
[44] = tested on: MALME-3M melanoma
[45] = tested on: CAKI-1 renal
[46] = tested on: ACHN renal
[47] = tested on: HL-60(TB) leukemia
[48] = tested on: A498 renal
[49] = tested on: K-562 leukemia
[50] = tested on: MDA-MB-435
[51] = tested on: NCI-H522 lung
[52] = tested on: LOX IMVI melanoma
[53] = tested on: HCT-15 colon
[54] = tested on: BT-549 breast
[55] = tested on: NCI-H460 lung
[56] = tested on: OVCAR-8 ovarian
[57] = tested on: SF-539 CNS
[58] = tested on: PC-3 prostate

For `COc1cccc2c1C(=O)c1c(O)c3c(c(O)c1C2=O)CC(O)(C(=O)CO)CC3OC1CC(N)C(O)C(C)O1` (centres undefined), the GI50 [1] was 15.9 µg/mL and 71 µg/mL, the TGI [1] was 75 µg/mL and > 150 µg/mL and the GI50 [2] was 0.801 µg/mL and 4.97 µg/mL. The GI50 [3] was 29.9 µg/mL and 25.1 µg/mL, the TGI [3] was 75 µg/mL and 113 µg/mL and the GI50 [4] was 75 µg/mL (≈ 138 µM). The TGI [4] was 75 µg/mL (≈ 138 µM), the GI50 [5] was 16.9 µg/mL and 54.4 µg/mL and the TGI [5] was 75 µg/mL and > 150 µg/mL. For the same molecule, the GI50 [6] was 7.14 µg/mL and 21.2 µg/mL, the TGI [6] was 75 µg/mL and > 150 µg/mL and the GI50 [7] was 9.12 µg/mL and 51.1 µg/mL. For the same molecule, the TGI [7] was 55 µg/mL and > 150 µg/mL, the GI50 [8] was 23.9 µg/mL and 7.86 µg/mL and the TGI [8] was 75 µg/mL and 127 µg/mL. The GI50 [9] was 7.53 µg/mL and 54.8 µg/mL, the TGI [9] was 73.9 µg/mL and > 150 µg/mL and the GI50 [10] was 14.4 µg/mL and 13 µg/mL. For the same molecule, the TGI [10] was 75 µg/mL and > 150 µg/mL, the GI50 [11] was 2.76 µg/mL and 10.7 µg/mL and the TGI [11] was 75 µg/mL and > 150 µg/mL. For the same molecule, the GI50 [12] was 7.5 µg/mL (≈ 13.8 µM), the TGI [12] was 75 µg/mL (≈ 138 µM) and the GI50 [13] was 6.54 µg/mL and 10.4 µg/mL. For the same molecule, the TGI [13] was 75 µg/mL and > 150 µg/mL, the GI50 [14] was 37.5 µg/mL and 69.1 µg/mL and the TGI [14] was 75 µg/mL and > 150 µg/mL. For the same molecule, the GI50 [15] was 75 µg/mL and 30 µg/mL, the TGI [15] was 75 µg/mL and > 150 µg/mL and the GI50 [16] was 22.6 µg/mL and 35.8 µg/mL. The TGI [16] was 75 µg/mL and > 150 µg/mL, the GI50 [17] was 9.99 µg/mL and 25.6 µg/mL and the TGI [17] was 75 µg/mL and > 150 µg/mL. For the same molecule, the GI50 [18] was 13.3 µg/mL and > 150 µg/mL, the TGI [18] was 75 µg/mL and > 150 µg/mL and the GI50 [19] was 5.83 µg/mL and 5.96 µg/mL. For the same molecule, the TGI [19] was 75 µg/mL and > 150 µg/mL, the GI50 [20] was 24.1 µg/mL and 44.3 µg/mL and the TGI [20] was 75 µg/mL and 138 µg/mL. The GI50 [21] was 7.54 µg/mL and 18.6 µg/mL, the TGI [21] was 27.8 µg/mL and 62 µg/mL and the GI50 [22] was 22.6 µg/mL and 14.9 µg/mL. For the same molecule, the TGI [22] was 75 µg/mL and 143 µg/mL, the GI50 [23] was 37.2 µg/mL and 26 µg/mL and the TGI [23] was 75 µg/mL and 122 µg/mL. For the same molecule, the GI50 [24] was 1.75 µg/mL and 7.36 µg/mL, the TGI [24] was 12.6 µg/mL and 28.5 µg/mL and the GI50 [25] was 0.465 µg/mL and 1.18 µg/mL. For the same molecule, the TGI [25] was 7.2 µg/mL and 6.76 µg/mL, the GI50 [26] was 4.17 µg/mL and 22.6 µg/mL and the TGI [26] was 75 µg/mL and > 150 µg/mL. The GI50 [27] was 33.8 µg/mL and 44.8 µg/mL, the TGI [27] was 75 µg/mL and > 150 µg/mL and the GI50 [28] was 75 µg/mL and > 150 µg/mL. The TGI [28] was 75 µg/mL and > 150 µg/mL, the GI50 [29] was 4.76 µg/mL and 15.7 µg/mL and the TGI [29] was 23.4 µg/mL and 44.8 µg/mL. For the same molecule, the GI50 [30] was 11.3 µg/mL and 49.1 µg/mL, the TGI [30] was 75 µg/mL and > 150 µg/mL and the GI50 [31] was 1.13 µg/mL and 1.46 µg/mL. The GI50 [32] was 59 µg/mL and > 150 µg/mL, the TGI [32] was 75 µg/mL and > 150 µg/mL and the GI50 [33] was 46.6 µg/mL and > 150 µg/mL. The TGI [33] was 75 µg/mL and > 150 µg/mL, the GI50 [34] was 2.04 µg/mL and 54.6 µg/mL and the TGI [34] was 75 µg/mL and > 150 µg/mL. The GI50 [35] was 16.1 µg/mL and 60.1 µg/mL, the TGI [35] was 75 µg/mL and > 150 µg/mL and the GI50 [36] was 18.6 µg/mL and 14.3 µg/mL. For the same molecule, the TGI [36] was 75 µg/mL and 116 µg/mL, the GI50 [37] was 7.24 µg/mL and 13.2 µg/mL and the TGI [37] was 75 µg/mL and 112 µg/mL. The GI50 [38] was 33.8 µg/mL (≈ 62.2 µM), the TGI [38] was 75 µg/mL (≈ 138 µM) and the GI50 [39] was 9.35 µg/mL and 48.5 µg/mL. For the same molecule, the TGI [39] was 75 µg/mL and > 150 µg/mL, the GI50 [40] was 7.26 µg/mL and 17.4 µg/mL and the TGI [40] was 75 µg/mL and > 150 µg/mL. For the same molecule, the GI50 [41] was 2.22 µg/mL and 6.15 µg/mL, the TGI [41] was 75 µg/mL and 44 µg/mL and the GI50 [42] was 15.7 µg/mL and 49.5 µg/mL. For the same molecule, the TGI [42] was 75 µg/mL and > 150 µg/mL, the GI50 [43] was 44.1 µg/mL and 79.3 µg/mL and the TGI [43] was 75 µg/mL and > 150 µg/mL. For the same molecule, the GI50 [44] was 10 µg/mL and 81.4 µg/mL, the TGI [44] was 75 µg/mL and > 150 µg/mL and the GI50 [45] was 16.3 µg/mL and 64 µg/mL. For the same molecule, the TGI [45] was 75 µg/mL and > 150 µg/mL, the GI50 [46] was 20.2 µg/mL and 12.2 µg/mL and the TGI [46] was 75 µg/mL and > 150 µg/mL. The GI50 [47] was 2.84 µg/mL and 26.4 µg/mL, the TGI [47] was 75 µg/mL and > 150 µg/mL and the GI50 [48] was 19 µg/mL and 33.8 µg/mL. The TGI [48] was 75 µg/mL and > 150 µg/mL, the GI50 [49] was 9.4 µg/mL and 25.2 µg/mL and the TGI [49] was 75 µg/mL and > 150 µg/mL. The GI50 [50] was 8.56 µg/mL and 67 µg/mL, the TGI [50] was 75 µg/mL and > 150 µg/mL and the GI50 [51] was 4.07 µg/mL (≈ 7.49 µM). The TGI [51] was 75 µg/mL (≈ 138 µM), the GI50 [52] was 3.89 µg/mL and 19.5 µg/mL and the TGI [52] was 75 µg/mL and > 150 µg/mL. For the same molecule, the GI50 [53] was 75 µg/mL and > 150 µg/mL, the TGI [53] was 75 µg/mL and > 150 µg/mL and the GI50 [54] was 34.6 µg/mL and 108 µg/mL. The TGI [54] was 75 µg/mL and > 150 µg/mL, the GI50 [55] was 0.709 µg/mL and 0.986 µg/mL and the TGI [55] was 75 µg/mL and 27.3 µg/mL. The GI50 [56] was 19.5 µg/mL and 45.7 µg/mL, the TGI [56] was 75 µg/mL and > 150 µg/mL and the GI50 [57] was 38.3 µg/mL and 18.8 µg/mL. The TGI [57] was 75 µg/mL and 94.8 µg/mL, the GI50 [58] was 37.2 µg/mL and 52.2 µg/mL and the TGI [58] was 75 µg/mL and > 150 µg/mL.
